# Data taken from patent publication US11007184B2, “Cancer treatments using combinations of type 2 MEK and ERK inhibitors” (BIOMED VALLEY DISCOVERIES, INC., priority 2013, dated 2021).
# Experiments:
# HCT116 Parental = assay: Single agent proliferation assay (CellTiter-Glo, 72 h); type: cell-based; settings: Homo sapiens, HCT-116
# HCT116 KRAS KO (+/−) = assay: as above; type: cell-based; settings: Homo sapiens, HCT-116
# RKO Parental = assay: as above; type: cell-based
# RKO BRAF KO (+/−/−) = assay: as above; type: cell-based
# A375 cells [1] = assay: Focused combination study, Alamar Blue viability assay; type: cell-based, human; settings: with the lower concentrations of Sorafenib
# Procedure: (§1) Combinations were tested using a 10×8 dose matrix with a final DMSO concentration of 0.2%. A 96 hour assay incubation period followed, with subsequent addition of Alamar Blue 10% (v/v) and 4 hours incubation prior to reading on a fluorescent plate reader. After reading Alamar Blue, the medium/Alamar Blue mix was flicked off and 100 μl of CellTiter-Glo/PBS (1:1) added and the plates processed as per the manufacturer's instructions (Promega). Media only background values were subtracted before the data was analysed. The Bliss additivity model was then applied. In brief, predicted fractional inhibition values for combined inhibition were calculated using the equation […]) where A and B are the fractional inhibitions obtained by drug A alone or drug B alone at specific concentrations. Cbliss is the fractional inhibition that would be expected if the combination of the two drugs were exactly additive. Cbliss values are subtracted from the experimentally observed fractional inhibition values to give an 'excess over Bliss' value. […] Excess over Bliss values are plotted as heat maps±SD. For focused combination studies, the Alamar Blue viability assays were performed as described above for combination studies. Additionally, Caspase-Glo 3/7 assays were performed. In brief, HCT116 cells were seeded in triplicate in white 96-well plates at a cell density of 5000 cells/well in McCoy's 5A plus 10% FBS. A375 cells were seeded at a density of 5000 cells/well in DMEM plus 10% FBS. […] The final concentration of DMSO was 0.2%, and 800 nM staurosporine was included as a positive control. 24 and 48 hour assay incubation periods were used. Then, Caspase-Glo® 3/7 50% (v/v) was added, plates were mixed for 5 minutes on an orbital shaker and incubated for 1 hour at room temperature prior to reading on a luminescent plate reader. Media only background values were subtracted before the data was analysed.
# HCT116 cells = assay: as above; type: cell-based, human
# Procedure: as §1
# A375 cells [2] = assay: Dose escalation study; type: cell-based, human; settings: Month 2; for Dose escalation progress: A375 cells; for Concentration in which escalated cells were growing: single agent escalation
# Excerpt: Medium was refreshed every 3-4 days. […] Again, medium was refreshed every 3-4 days. The process was repeated as required (FIG. 19).
# [3] = test system: MAPK signaling in A375 and HCT116 cells; assay: Western blot analysis of MAPK signaling; type: cell-based, human
# Procedure: For Western blot studies, HCT116 cells (5×10^6) were seeded into 10 cm dishes in McCoy's 5A plus 10% FBS. […] Cells were allowed to adhere overnight prior to addition of the indicated amount of test compound (BVD-523) or vehicle control. Cells were treated for either 4 or 24 hours before isolation of whole-cell protein lysates, as specified below. Cells were harvested by trypsinisation, pelleted and snap frozen. Lysates were prepared with RIPA (Radio-Immunoprecipitation Assay) buffer, clarified by centrifugation and quantitated by bicinchoninic acid assay (BCA) assay. 20-50 μg of protein was resolved by SDS-PAGE electrophoresis, blotted onto PVDF membrane and probed using the antibodies detailed in Table 14 (for the 4-hour treatment) and Table 15 (for the 24-hour treatment) below.
# [4] = test system: A375 cells escalated with BVD-523 (BVD-523 line); assay: Proliferation assay (Alamar Blue, 96 hours), dose escalation study; type: cell-based; settings: Homo sapiens, A-375, Month 3, growing in 1.2 μM BVD-523, read-out: Relative IC50
# A375 cells [5] = assay: Combination study, 10×8 dose matrix, Alamar Blue and CellTiter-Glo, Bliss additivity model; type: cell-based, human; settings: single agent
# Procedure: Combinations were tested using a 10×8 dose matrix with a final DMSO concentration of 0.2%. A 96 hour assay incubation period followed, with subsequent addition of Alamar Blue 10% (v/v) and 4 hours incubation prior to reading on a fluorescent plate reader. After reading Alamar Blue, the medium/Alamar Blue mix was flicked off and 100 μl of CellTiter-Glo/PBS (1:1) added and the plates processed as per the manufacturer's instructions (Promega). Media only background values were subtracted before the data was analysed. The Bliss additivity model was then applied.
# In brief, predicted fractional inhibition values for combined inhibition were calculated using the equation Cbliss=A+B−(A×B) where A and B are the fractional inhibitions obtained by drug A alone or drug B alone at specific concentrations. Cbliss is the fractional inhibition that would be expected if the combination of the two drugs were exactly additive. Cbliss values are subtracted from the experimentally observed fractional inhibition values to give an ‘excess over Bliss’ value. Excess over Bliss values greater than 0 indicate synergy, whereas values less than 0 indicate antagonism. Excess over Bliss values are plotted as heat maps±SD.
# The single and combination data are also presented as dose-response curves generated in GraphPad Prism (plotted using % viability relative to DMSO only treated controls).
# [6] = test system: A375 cells escalated with dabrafenib + trametinib (Dab/Tram line)
# A375 Parental = assay: Single agent proliferation assay (CellTiter-Glo, 72 h); type: cell-based; settings: Homo sapiens, A-375
# A375 NRAS (Q61K/+) = assay: as above; type: cell-based; settings: Homo sapiens, A-375
IC50 (HCT116 KRAS KO (+/−)) [nM],IC50 (A375 NRAS (Q61K/+)) [nM],SMILES,IC50 (HCT116 Parental) [nM],IC50 (RKO Parental) [nM],IC50 (RKO BRAF KO (+/−/−)) [nM],Combination interaction with Sorafenib (A375 cells [1]),Combination interaction with AZ628 (HCT116 cells),Combination interaction with Sorafenib (HCT116 cells; Trametinib: with higher concentrations of Sorafenib),Dose escalation progress (A375 cells [2]),"Concentrations required to induce changes in substrate phosphorylation and effector targets of ERK kinases ([3]; RAF and RAS mutant cancer cells in-vitro, acute and prolonged treatment)",RSK1/2 phosphorylation at residues strictly dependent on ERK (T359/5363) ([3]; following BVD-523 treatment),Cellular ERK enzyme activity ([3]; following either acute or prolonged treatment),IC50 [4] [nM],"Sensitivity of A375 cells, which carry a BRAF (V600E) mutation (A375 cells [5])",Concentration in which escalated cells were growing (A375 cells [2]) [× parental cell IC50],IC50 [6] [nM],IC50 (A375 Parental) [nM]
29,10,O=C(NOCCO)c1ccc2cncn2c1Nc1ccc(I)cc1F [GDC-0623],31,32,5,–,–,–,–,–,–,–,–,–,–,–,8
61,3,O=C(c1ccc(F)c(F)c1Nc1ccc(I)cc1F)N1CC(O)([C@@H]2CCCCN2)C1 [GDC-0973],90,40,31,–,–,–,–,–,–,–,–,–,–,–,2
6,–,"CC(=O)Nc1cccc(-n2c(=O)n(C3CC3)c(=O)c3c(Nc4ccc(I)cc4F)n(C)c(=O)c(C)c32)c1 [Trametinib, trametinib]",7,8,3,–,–,–,–,–,–,–,1.7,–,100,–,0.3

# Further lines, the molecule ahead of its results:
SMILES,IC50 (HCT116 KRAS KO (+/−)) [nM],IC50 (A375 NRAS (Q61K/+)) [nM],IC50 (HCT116 Parental) [nM],IC50 (RKO Parental) [nM],IC50 (RKO BRAF KO (+/−/−)) [nM],Combination interaction with Sorafenib (A375 cells [1]),Combination interaction with AZ628 (HCT116 cells),Combination interaction with Sorafenib (HCT116 cells; Trametinib: with higher concentrations of Sorafenib),Dose escalation progress (A375 cells [2]),"Concentrations required to induce changes in substrate phosphorylation and effector targets of ERK kinases ([3]; RAF and RAS mutant cancer cells in-vitro, acute and prolonged treatment)",RSK1/2 phosphorylation at residues strictly dependent on ERK (T359/5363) ([3]; following BVD-523 treatment),Cellular ERK enzyme activity ([3]; following either acute or prolonged treatment),IC50 [4] [nM],"Sensitivity of A375 cells, which carry a BRAF (V600E) mutation (A375 cells [5])",Concentration in which escalated cells were growing (A375 cells [2]) [× parental cell IC50],IC50 [6] [nM],IC50 (A375 Parental) [nM]
CC(C)Nc1cc(-c2c[nH]c(C(=O)N[C@H](CO)c3cccc(Cl)c3)c2)c(Cl)cn1 [BVD-523],316,–,256,621,762,window of synergy,windows of synergy,windows of synergy,progressed more slowly,low micromolar range,reduced phosphorylation,fully inhibited,–,–,–,–,–
"CC(C)(C)c1nc(-c2cccc(NS(=O)(=O)c3c(F)cccc3F)c2F)c(-c2ccnc(N)n2)s1 [Dabrafenib, dabrafenib]",–,–,–,–,–,–,–,–,quickest,–,–,–,18.4,sensitive,100,58,–
Cn1cnc2c(F)c(Nc3ccc(Br)cc3F)c(C(=O)NOCCO)cc21 [MEK-162],113,33,114,210,23,–,–,–,–,–,–,–,–,–,–,–,23
CC(=O)O[C@H]1C(=O)[C@@]2(C)[C@H]([C@H](OC(=O)c3ccccc3)[C@]3(O)C[C@H](OC(=O)[C@H](O)[C@@H](NC(=O)c4ccccc4)c4ccccc4)C(C)=C1C3(C)C)[C@]1(OC(C)=O)CO[C@@H]1C[C@@H]2O [Paclitaxel],–,6,–,–,–,–,–,–,–,–,–,–,–,–,–,–,–
O=C(Nc1ccc2[nH]nc(-c3ccncc3)c2c1)[C@@H]1CCN(CC(=O)N2CCN(c3ccc(-c4ncccn4)cc3)CC2)C1 [SCH772984],141,79,116,126,125,–,–,–,–,–,–,–,–,–,–,–,43
